In patent US20250230193A1, “CYCLIC COMPOUND HAVING SELECTIVE KRAS INHIBITORY EFFECT ON HRAS AND NRAS” (CHUGAI SEIYAKU KABUSHIKI KAISHA, priority 2022, published 2025):
Where a SMILES comes first, the peptide text is derived from it. Bridges are numbered along the chain shown (N, C = ends). [ ]: non-standard residue; d: D form. The star is where a group is joined. hPhe(3-Cl-4-CF3) = N[C@@H](CCc1ccc(C(F)(F)F)c(Cl)c1)C(=O)O; NPrPhe(4-CF3) = CCCN[C@@H](Cc1ccc(C(F)(F)F)cc1)C(=O)O; NMeGly(cPent) = CN[C@H](C(=O)O)C1CCCC1; NMeD = CN[C@@H](CC(=O)O)C(=O)O; NMeL = CN[C@@H](CC(C)C)C(=O)O; Ac6c = NC1(C(=O)O)CCCCC1; Morpholide = C1CN(*)CCO1; Sar = CNCC(=O)O

How the values were obtained:
[1] = molecular target: GDP-bound NRAS wild-type protein (Homo sapiens, UniProt P01111); test: Binding to NRAS by surface plasmon resonance (SPR), Single Cycle Kinetics; settings: SPR; for NRAS/KRAS (ratio of KD value for NRAS to KD value for KRAS) / NRAS/KRAS (ratio of KD value with respect to NRAS to KD value with respect to KRAS): GDP-bound NRAS wild-type vs GDP-bound KRAS wild-type
[2] = molecular target: GDP-bound HRAS wild-type protein (Homo sapiens, UniProt P01112); test: Binding to HRAS by surface plasmon resonance (SPR), Single Cycle Kinetics; settings: SPR; for HRAS/KRAS (ratio of KD value for HRAS to KD value for KRAS) / HRAS/KRAS (ratio of KD value with respect to HRAS to KD value with respect to KRAS): GDP-bound HRAS wild-type vs GDP-bound KRAS wild-type
Chain of GDP-bound HRAS wild-type protein (P01112 whole entry): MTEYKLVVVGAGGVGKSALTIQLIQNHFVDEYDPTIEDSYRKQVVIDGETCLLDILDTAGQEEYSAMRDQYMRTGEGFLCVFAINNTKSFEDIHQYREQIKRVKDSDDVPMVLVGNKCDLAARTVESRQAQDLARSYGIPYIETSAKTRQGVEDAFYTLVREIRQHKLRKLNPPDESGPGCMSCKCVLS

Chain of GDP-bound NRAS wild-type protein (P01111 whole entry): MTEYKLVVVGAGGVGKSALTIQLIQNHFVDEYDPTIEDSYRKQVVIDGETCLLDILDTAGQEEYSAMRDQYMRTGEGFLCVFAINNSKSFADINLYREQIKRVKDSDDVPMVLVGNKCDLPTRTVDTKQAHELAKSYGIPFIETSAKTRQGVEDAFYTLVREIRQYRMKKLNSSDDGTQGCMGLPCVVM

CCC[C@H]1C(=O)N[C@@H]([C@@H](C)CC)C(=O)N(C)CC(=O)N(C)[C@H]2C/C=C\CCN(C2=O)[C@@H](Cc2ccc(C(F)(F)F)cc2)C(=O)N(C)CC(=O)N[C@@H](CCc2cc(F)c(C(F)(F)F)c(F)c2)C(=O)N2C[C@H](OCC)C[C@H]2C(=O)NC2(CCC2)C(=O)N(C)[C@@H](C2CCCC2)C(=O)N(C)[C@H](C(=O)N(C)CCOC)CC(=O)N1C [PP1331]
NRAS/KRAS (ratio of KD value for GDP-bound NRAS wild-type protein to KD value for KRAS) ([1]; KD ratio class): A (a compound having 10 or more and less than 20 is denoted as A)
HRAS/KRAS (ratio of KD value for GDP-bound HRAS wild-type protein to KD value for KRAS) ([2]; KD ratio class): A (a compound having 10 or more and less than 20 is denoted as A)

CCO[C@@H]1C[C@H]2C(=O)NC3(CC(C)(C)C3)C(=O)N(C)[C@@H](C3CCCC3)C(=O)N(C)[C@H](C(=O)N(C)CC)CC(=O)N(C)[C@@H](CC3CC3)C(=O)N[C@@H]([C@@H](C)CC)C(=O)N(C)CC(=O)N(C)[C@H]3C/C=C\CCN(C3=O)[C@@H](Cc3ccc(C(F)(F)F)cc3)C(=O)N(C)CC(=O)N[C@@H](CCc3cc(F)c(C(F)(F)F)c(F)c3)C(=O)N2C1 [PP1648]
NRAS/KRAS (ratio of KD value for NRAS to KD value for KRAS) ([1]; KD ratio): A (a compound having 10 or more and less than 20 is denoted as A)
HRAS/KRAS (ratio of KD value for HRAS to KD value for KRAS) ([2]; KD ratio): A (a compound having 10 or more and less than 20 is denoted as A)

CCO[C@@H]1C[C@H]2C(=O)NC3(CCC3)C(=O)N(C)[C@@H](C3CCCC3)C(=O)N(C)[C@H](C)CC(=O)N(C)[C@@H](CC(C)C)C(=O)N[C@@H]([C@@H](C)CC)C(=O)N(C)CC(=O)N(C)[C@H]3C/C=C\CCN(C3=O)[C@@H](Cc3ccc(C(F)(F)F)cc3)C(=O)N(C)CC(=O)N[C@@H](CCc3cc(F)c(C(F)(F)F)c(F)c3)C(=O)N2C1 [PP1100]
NRAS/KRAS (ratio of KD value with respect to NRAS to KD value with respect to KRAS) ([1]; KD ratio): B (a compound having 3 or more and less than 10 is denoted as B)
HRAS/KRAS (ratio of KD value with respect to HRAS to KD value with respect to KRAS) ([2]; KD ratio): B (a compound having 3 or more and less than 10 is denoted as B)

CCO[C@@H]1C[C@H]2C(=O)NC3(CC(C)(C)C3)C(=O)N(C)[C@@H](C3CCCC3)C(=O)N(C)[C@H](C(=O)N(C)C)CC(=O)N(C)[C@@H](CC(C)C)C(=O)N[C@@H]([C@@H](C)CC)C(=O)N(C)CC(=O)N(C)[C@H]3C/C=C\CCN(C3=O)[C@@H](Cc3ccc(C(F)(F)F)cc3)C(=O)N(C)CC(=O)N[C@@H](CCc3ccc(C(F)(F)F)c(F)c3)C(=O)N2C1 [PP1931]
NRAS/KRAS (ratio of KD value for NRAS to KD value for KRAS) ([1]; KD ratio): A (a compound having 10 or more and less than 20 is denoted as A)
HRAS/KRAS (ratio of KD value for HRAS to KD value for KRAS) ([2]; KD ratio): B (a compound having 3 or more and less than 10 is denoted as B)

CCCN1C(=O)CN(C)C(=O)CN(C)C(=O)[C@H]([C@@H](C)CC)NC(=O)[C@H](CC(C)C)N(C)C(=O)C[C@@H](C(=O)N2CCOCC2)N(C)C(=O)[C@H](C2CCCC2)N(C)C(=O)C2(CCCCC2)NC(=O)[C@@H]2CCCN2C(=O)[C@H](CCc2ccc(C(F)(F)F)c(Cl)c2)NC(=O)CN(C)C(=O)[C@@H]1Cc1ccc(C(F)(F)F)cc1 [PP0231] ([NMeL]I[Sar][Sar][NPrPhe(4-CF3)][Sar][hPhe(3-Cl-4-CF3)]P[Ac6c][NMeGly(cPent)][NMeD]-Morpholide; lactam N-11)
NRAS/KRAS (ratio of KD for GDP-bound NRAS wild-type to KD for KRAS) ([1]; KD ratio NRAS/KRAS): B (a compound having 3 or more and less than 10 is denoted as B)
HRAS/KRAS (ratio of KD for GDP-bound HRAS wild-type to KD for KRAS) ([2]; KD ratio HRAS/KRAS): C (A compound having a KD ratio of 0.1 or more and less than 3 is denoted as C)

CCC[C@H]1C(=O)N[C@@H]([C@@H](C)CC)C(=O)N(C)CC(=O)N(C)[C@H]2C/C=C\CCN(C2=O)[C@@H](CC2CCCCC2)C(=O)N(C)CC(=O)N[C@@H](CCc2ccc(C(F)(F)F)c(OC)c2)C(=O)N2C[C@H](OCC)C[C@H]2C(=O)N(C)C2(CCC2)C(=O)N(C)[C@@H](C2CCCC2)C(=O)N(C)[C@H](C(=O)N(C)C)CC(=O)N1C [PP2336]
NRAS/KRAS (ratio of KD value with respect to NRAS to KD value with respect to KRAS) [1]: A (a compound having 10 or more and less than 20 is denoted as A)
HRAS/KRAS (ratio of KD value with respect to HRAS to KD value with respect to KRAS) [2]: A (a compound having 10 or more and less than 20 is denoted as A)

CCCOC[C@H]1C(=O)N[C@@H]([C@@H](C)CC)C(=O)N(C)CC(=O)N(C)[C@H]2C/C=C\CCN(C2=O)[C@@H](Cc2ccc(C(F)(F)F)cc2)C(=O)N(C)CC(=O)N[C@@H](CCc2cc(F)c(Cl)c(F)c2)C(=O)N2C[C@H](OCC)C[C@H]2C(=O)NC2(CC(C)(C)C2)C(=O)N(C)[C@@H](C2CCCC2)C(=O)N(C)[C@H](C(=O)N(C)C)CC(=O)N1C [PP1764]
NRAS/KRAS (ratio of KD value for NRAS to KD value for KRAS) ([1]; KD ratio): AA (a compound having 20 or more is denoted as AA)
HRAS/KRAS (ratio of KD value for HRAS to KD value for KRAS) ([2]; KD ratio): A (a compound having 10 or more and less than 20 is denoted as A)

CCO[C@@H]1C[C@H]2C(=O)NC3(CCC3)C(=O)N(C)[C@@H](C3CCCC3)C(=O)N(C)[C@H](C(=O)N3CCCC3)CC(=O)N(C)[C@H]3CCCCC/C=C/c4ccc(cc4)C[C@@H](C(=O)N(C)CC(=O)N[C@@H](CCc4ccc(Cl)c(Cl)c4)C(=O)N2C1)N1CC/C=C\C[C@@H](C1=O)N(C)C(=O)CN(C)C(=O)[C@H]([C@@H](C)CC)NC3=O [PP3049]
NRAS/KRAS (ratio of KD value with respect to GDP-bound NRAS wild-type protein to KD value with respect to KRAS) ([1]; KD ratio NRAS/KRAS, GDP-bound wild-type proteins): AA (a compound having 20 or more is denoted as AA)
HRAS/KRAS (ratio of KD value with respect to GDP-bound HRAS wild-type protein to KD value with respect to KRAS) ([2]; KD ratio HRAS/KRAS, GDP-bound wild-type proteins): A (a compound having 10 or more and less than 20 is denoted as A)
